Key:
BTK WT protein = molecular target: T1, BTK WT protein (Homo sapiens, UniProt Q06187); assay: Btk acellular kinase assay, BTK WT protein purified from transfected 293T cells; type: biochemical; conditions: 100 μM ATP
T1 construct: made in house; host or cells: 293T cells
Experimental: The BTK wild-type plasmid and the BTK mutant plasmid (C481S) were respectively transfected into 293T cells (purchased from ATCC), and the resultant cells were marked as BTK WT 293T cells and BTK C481S 293T cells, respectively. After cell culture for 2 days, the cells were harvested and purified to give BTK WT and BTK C481S proteins. The compounds of formula (I) were added to the BTK WT and BTK C481S proteins at different concentrations of 3 nM, 10 nM, 30 nM, 100 nM, 300 nM and 1000 nM, respectively, and reacted at room temperature for 30 min, followed by the addition of 100 μM ATP at 37° C. and reacting for 20 min.

MDS-RAEB cell line SKM-1 = assay: Cancer cell growth, Cell Titer-Glo; type: cell-based; conditions: Homo sapiens; SKM-1, 72 hrs; read-out: Half inhibitory concentration IC50
Excerpt: (§1) We further assessed the selectivity of Compound 1 to inhibit the proliferation of cancer cells, by testing the effect of Btk inhibitor on the growth of cancer cells. In the example, we used B-lymphoma cell Ramos, cervical cancer cells HeLa, prostate cancer cells DU145, RV-1 and C4-2, colon cancer cells HCT116, blood cancer cells K562, B-cell lymphoma cells U2932, diffuse large B-cell lymphoma cells OCI-LY10, diffuse histiocytic lymphoma cells SU-DHL-2, diffuse large B-cell lymphoma cells TMD8, human non-small cell lung cancer cells H1975 (expressing EGFR L858R/T790M double mutant gene), human lung adenocarcinoma cells A549 (expressing wild-type EGFR gene), human non-small cell lung cancer cells H460 (expressing wild-type EGFR gene), mantel cell lymphoma (MCL) cells Z-138, EB virus infected human peripheral lymphocyte cells JVM-2, MCL cells REC-1, leukemia cells AML-3, acute promyelocytic leukemia cell line NB-4(Lu+), MDS-RAEB (myelodysplastic syndrome-excessive blasts) cell line SKM-1 human leukemia cell Nomo-1, human B-cell leukemia cell line NALM6, human leukocyte leukemia cells HEL, human T-cell lymphoma cells PF-382, acute myelocytic leukemia (AML) cell line MOLM14, AML cell line MOLM13, human Burkitt's lymphoma cells Namalwa, mouse pro-B cells BaF3, all of where were purchased from ATCC. Also used were mouse TEL-EGFR-BaF3 (stably expressing TEL-EGFR activated kinase), mouse TEL-EGFR/T790-BaF3 cells (stably expressing TEL-EGFR-T790M activated mutant kinase), mouse TEL-EGFR/L858R-BaF3 cells (stably expressing TEL-EGFR-L858R activated mutant kinase), mouse TEL-EGFR/T790/L858R-BaF3 (stably expressing TEL-EGFR-T790M/L858R activated mutant kinase), mouse TEL-BMX-BaF3 cells (stably expressing TEL-BMX activated kinase), mouse TEL-JAK1-BaF3 cells (stably expressing TEL-JAK1 activated kinase), mouse TEL-JAK2-BaF3 cells (stably expressing TEL-JAK2 activated kinase), mouse TEL-JAK3-BaF3 cells (stably expressing TEL-JAK3 activated kinase), where were all established by our laboratory via the following method: the kinase domain sequences of human EGFR, BMX, JAK1, JAK2, JAK3 were amplified respectively by PCR, and these kinase were inserted into the MSCV-Puro vectors with N-terminal TEL segment (Clontech); if there was a mutation, the mutation of the corresponding site was conducted by Site-Directed Mutagenesis kit (Stratagene); the resultants were stably transfected into mouse BaF3 cells by the means of retrovirus, and the IL-3 growth factors were removed, and eventually the EGFR, BMX, JAK1, JAK2, JAK3-transferred protein dependent cell lines were obtained.
(§2) In the example, different concentrations (0.000508 μM, 0.00152 μM, 0.00457 μM, 0.0137 μM, 0.0411 μM, 0.123 μM, 0.370 μM, 1.11 μM, 3.33 μM, 10 μM) of Compound 1 and Compound 19 were added into above cells, and were incubated for 72 hrs. The number of viable cells was determined by quantitating ATP in viable cells using Cell Titer-Glo® (Promega, U.S.) chemiluminescence cell viability assay kit.

[1] = test system: B-cell lymphoma cells U2932; assay: Cancer cell growth, Cell Titer-Glo; type: cell-based; conditions: Homo sapiens; U2932, 72 hrs; read-out: Half inhibitory concentration IC50
Excerpt: as §1, §2

[2] = test system: human non-small cell lung cancer cells H460 (expressing wild-type EGFR gene); assay: Cancer cell growth, Cell Titer-Glo; type: cell-based; conditions: NCI-H460, H460, 72 hrs, read-out: Half inhibitory concentration IC50
Excerpt: as §1, §2

[3] = test system: human B-cell leukemia cell line NALM6; assay: Cancer cell growth, Cell Titer-Glo; type: cell-based; conditions: NALM-6, NALM6, 72 hrs, read-out: Half inhibitory concentration IC50
Excerpt: as §1, §2

blood cancer cells K562 = assay: Cancer cell growth, Cell Titer-Glo; type: cell-based; conditions: Homo sapiens; K562, 72 hrs; read-out: Half inhibitory concentration IC50
Excerpt: as §1, §2

[4] = test system: human Burkitt's lymphoma cells Namalwa; assay: Cancer cell growth, Cell Titer-Glo; type: cell-based; conditions: Burkitts lymphoma cell, 72 hrs, read-out: Half inhibitory concentration IC50
Excerpt: as §1, §2

[5] = test system: prostate cancer cells RV-1; assay: Cancer cell growth, Cell Titer-Glo; type: cell-based; conditions: RV-1, 72 hrs; read-out: Half inhibitory concentration IC50
Excerpt: as §1, §2

[6] = test system: human leukemia cell Nomo-1; assay: Cancer cell growth, Cell Titer-Glo; type: cell-based; conditions: Nomo-1, 72 hrs, read-out: Half inhibitory concentration IC50
Excerpt: as §1, §2

leukemia cells AML-3 = assay: Cancer cell growth, Cell Titer-Glo; type: cell-based; conditions: AML3; AML-3, 72 hrs; read-out: Half inhibitory concentration IC50
Excerpt: as §1, §2

[7] = test system: human non-small cell lung cancer cells H1975 (expressing EGFR L858R/T790M double mutant gene); assay: Cancer cell growth, Cell Titer-Glo; type: cell-based; conditions: NCI-H1975, H1975, 72 hrs, read-out: Half inhibitory concentration IC50
Excerpt: as §1, §2

BTK = BTK (Homo sapiens, UniProt Q06187); assay: Phosphorylation of BTK in IL2-stimulated PBMC, Western Blot; type: cell-based; set-up: endogenous in cells; host or cells: human peripheral blood mononuclear cells (PBMC); conditions: 3.5 hours, then 20 ng/mL IL2 30 min
Experimental: In order to test the effect of Compound 1 on human cells, a peripheral blood mononuclear cell (PBMC) culture system with BTK signal being activated by in vitro stimulation was introduced. The phenomena occurred in the clinical patients were simulated by stimulating PBMC of a normal human with IL2 to activate the BTK signal. PBMC cells were seeded in 6-well plate and Compound 1 of different concentrations (0, 0.01, 0.1, 1 μM), 1 μM of PCI-32765 and 1 μM of Compound 19 were added; 3.5 hours later after the administration, the samples were stimulated with 20 ng/ML IL2 for 30 min and then were collected. Western Blot assay was performed. […] The negative control Compound 19 had no effect on the phosphorylation of BTK.

Chain of BTK (Q06187 whole entry): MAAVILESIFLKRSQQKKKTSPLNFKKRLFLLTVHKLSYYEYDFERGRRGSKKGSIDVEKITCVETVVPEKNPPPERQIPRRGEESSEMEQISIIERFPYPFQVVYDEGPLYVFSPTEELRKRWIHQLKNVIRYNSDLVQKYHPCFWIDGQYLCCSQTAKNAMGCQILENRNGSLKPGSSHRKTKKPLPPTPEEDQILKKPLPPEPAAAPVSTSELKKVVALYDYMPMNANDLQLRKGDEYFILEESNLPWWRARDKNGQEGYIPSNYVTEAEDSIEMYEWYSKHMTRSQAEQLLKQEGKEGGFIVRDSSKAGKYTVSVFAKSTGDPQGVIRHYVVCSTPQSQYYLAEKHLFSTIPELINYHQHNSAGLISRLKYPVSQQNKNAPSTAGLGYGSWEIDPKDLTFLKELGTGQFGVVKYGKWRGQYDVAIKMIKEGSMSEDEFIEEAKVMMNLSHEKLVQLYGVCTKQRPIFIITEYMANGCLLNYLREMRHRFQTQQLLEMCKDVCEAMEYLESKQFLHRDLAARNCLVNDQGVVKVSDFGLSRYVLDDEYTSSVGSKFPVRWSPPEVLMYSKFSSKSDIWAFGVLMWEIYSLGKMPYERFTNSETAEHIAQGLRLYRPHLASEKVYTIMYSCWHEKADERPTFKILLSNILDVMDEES
T1 sequence (Q06187 whole entry): as above

| inhibitory effect on BTK WT (BTK WT protein; 3-1000 nM) | IC50 (MDS-RAEB cell line SKM-1) [µM] | IC50 [1] [µM] | IC50 [2] [µM] | IC50 [3] [µM] | IC50 (blood cancer cells K562) [µM] | IC50 [4] [µM] | IC50 [5] [µM] | IC50 [6] [µM] | IC50 (leukemia cells AML-3) [µM] | IC50 [7] [µM] | IC50 (BTK WT protein; 30 min room temperature preincubation, 37° C., 20 min) [µM] | effect on phosphorylation of BTK in PBMCs (BTK; 0.01, 0.1, 1 μM, some dose-dependency) | SMILES | effect on phosphorylation of BTK in PBMCs (BTK; 1 μM) |
| --- | --- | --- | --- | --- | --- | --- | --- | --- | --- | --- | --- | --- | --- | --- |
| no inhibitory effect | > 10 | > 10 | > 10 | > 10 | > 10 | > 10 | > 10 | > 10 | > 10 | > 10 | – | – | CCC(=O)Nc1cc(-n2c(=O)ccc3cnc4ccc(-n5cccn5)cc4c32)ccc1C [Compound 19, N-(2-methyl-5-(2-oxo-9-(1H-pyrazol-1-yl)benzo[H][1,6]naphthyridin-1(2H)-yl)phenyl) propionamide] | no effect |
| – | 1.5 | 1.15 | > 10 | 1.17 | > 10 | 4.5 | > 10 | 4.9 | 7.3 | 3.81 | 0.056 | significantly inhibited | C=CC(=O)Nc1cc(-n2c(=O)ccc3cnc4ccc(-n5cccn5)cc4c32)ccc1C [Compound 1, N-(2-methyl-5-(2-oxo-9-(1H-pyrazol-1-yl)benzo[H][1,6]naphthyridin-1(2H)-yl)phenyl)acrylamide] | comparative to that of the positive control |

From patent US9814709B2, “Bruton's tyrosine kinase inhibitor” (HEFEI INSTITUTES OF PHYSICAL SCIENCE, CHINESE ACADEMY OF …, priority 2014, dated 2017)
